Measured values as given in patent US8258171B2, “pH-sensitive fluorescent probe” (The University of Tokyo, priority 2006, dated 2012).

Legend:
[1] = Optical characteristics of pH-sensitive fluorescent probes (absorption, emission, fluorescence quantum yield); assay type: physicochemical; settings: for Φfl (fluorescence quantum yield): fluorescein (Φfl = 0.85) as reference
Experimental: (§1) Optical characteristics of the compounds of the present invention, 3a (H2NBDP-PH), 3b (DiMeNBDP-PH), and 3c (DiEtNBDP-PH), and a compound not having an anilinic amino group as a pH detecting moiety, 3d (PhBDP-PH), as a control compound were measured.

[2] = pH-dependent change of fluorescence quantum yield and pKa by Henderson-Hasselbach equation; assay type: physicochemical; settings: for pKa: Determined with Henderson-Hasselbach equation using fluorescence quantum yield; for pH-dependency of fluorescence intensity (fluorescence quantum yield): FIG. 1
Experimental: as §1

[3] = N-protonated form, pH 1.47 for 3a, pH 2.00 for 3b and 3c
[4] = control compound without anilinic amino group, no form or pH given

| SMILES | Stokes' shift ([1]; N-nonprotonated form, pH 9.00) [nm] | ε ([1]; N-nonprotonated form, pH 9.00) [M⁻¹ cm⁻¹] | λabs, max ([1]; N-nonprotonated form, pH 9.00) [nm] | λem, max ([1]; N-nonprotonated form, pH 9.00) [nm] | Φfl (fluorescence quantum yield) ([1]; N-nonprotonated form, pH 9.00) | Stokes' shift [1, 3] [nm] | ε [1, 3] [M⁻¹ cm⁻¹] | λabs, max [1, 3] [nm] | λem, max [1, 3] [nm] | Φfl (fluorescence quantum yield) [1, 3] | pKa [2] | pH-dependency of fluorescence intensity (fluorescence quantum yield) [2] | Stokes' shift [1, 4] [nm] | ε [1, 4] [M⁻¹ cm⁻¹] | λabs, max [1, 4] [nm] | λem, max [1, 4] [nm] | Φfl (fluorescence quantum yield) [1, 4] |
| --- | --- | --- | --- | --- | --- | --- | --- | --- | --- | --- | --- | --- | --- | --- | --- | --- | --- |
| CC1=C(CCC(=O)O)C(C)=[N+]2C1=C(c1ccc(N)cc1)c1c(C)c(CCC(=O)O)c(C)n1[B-]2(F)F [Compound 3a, 1,3,5,7-Tetramethyl-2,6-bis-(2-carboxyethyl)-8-(4-aminophenyl)-4,4-difluoro-4-bora-3a,4a-diaza-s-indacene] | 17 | 71100 | 519 | 536 | 0.002 | 13 | 72100 | 520 | 533 | 0.55 | 3.8 | pH-dependency following the Henderson-Hasselbach equation | – | – | – | – | – |
| CC1=C(CCC(=O)O)C(C)=[N+]2C1=C(c1ccc(N(C)C)cc1)c1c(C)c(CCC(=O)O)c(C)n1[B-]2(F)F [Compound 3b, 1,3,5,7-Tetramethyl-2,6-bis-(2-carboxyethyl)-8-[4-(N,N-dimethylamino)phenyl]-4,4-difluoro-4-bora-3a,4a-diaza-s-indacene] | 16 | 62300 | 519 | 535 | 0.002 | 14 | 58900 | 521 | 535 | 0.56 | 4.3 | pH-dependency following the Henderson-Hasselbach equation | – | – | – | – | – |
| CCN(CC)c1ccc(C2=C3C(C)=C(CCC(=O)O)C(C)=[N+]3[B-](F)(F)n3c(C)c(CCC(=O)O)c(C)c32)cc1 [Compound 3c, 1,3,5,7-Tetramethyl-2,6-bis-(2-carboxyethyl)-8-[4-(N,N-diethylamino)phenyl]-4,4-difluoro-4-bora-3a,4a-diaza-s-indacene] | 17 | 64400 | 519 | 536 | 0.002 | 13 | 64100 | 521 | 534 | 0.56 | 6.0 | pH-dependency following the Henderson-Hasselbach equation | – | – | – | – | – |
| CC1=C(CCC(=O)O)C(C)=[N+]2C1=C(c1ccccc1)c1c(C)c(CCC(=O)O)c(C)n1[B-]2(F)F [Compound 3d, 1,3,5,7-Tetramethyl-2,6-bis-(2-carboxyethyl)-8-phenyl-4,4-difluoro-4-bora-3a,4a-diaza-s-indacene, reference compound] | – | – | – | – | – | – | – | – | – | – | – | – | 14 | 73200 | 520 | 534 | 0.56 |
